Read-outs that look alike come from different tables or passages of the source. Some results are limits rather than exact numbers.

The target in assay [1] is T1, PD-1/PD-L1 interaction (Jurkat cells overexpressing PD-1 co-cultured with PD-L1 expressing CHO cells) (Homo sapiens, UniProt Q9NZQ7).
T1 construct: expressed in transfected cells; Jurkat cells (PD-1 and NF-AT luciferase construct)
Description: PD-1/PD-L1 NFAT Reporter Assay. It counts as cell-based. The conditions noted are these: Table C-1; Jurkat/CHO co-culture, 6 hrs at 37° C., luciferase activity. On the procedure:
Blocking the PD-1/PD-L1 interaction will release the inhibitory signal and results in TCR signaling and NFAT-mediated luciferase activity.
CHO cells expressing surface-bound anti-CD3 antibodies and PD-L1 were first seeded overnight and treated with the compounds. Jurkat cells overexpressing PD-1 and a luciferase construct under NF-AT promoter were then immediately seeded on the monolayer of CHO cells. The co-culture was then incubated for 6 hrs at 37° C. Luciferase activity was assessed by adding the ONE-Glo reagent and measuring luminescence with a plate reader. EC50s values were determined from the fit of the dose-response curves
On the technique in general: In a reporter assay the amount or activity of a reporter protein is the signal.

The target in assay [2] is PD-1/PD-L1 interaction (PDL1-6×His protein, PD1-Fc-Avi-Biotin protein) (Homo sapiens, UniProt Q9NZQ7). In words: PDL1/PD1 Binding Assay. The conditions noted are these: 0.3 nM PDL1, 2.5 nM PD1. As for the experimental part:
Compounds to be tested were serially diluted in DMSO, and further diluted in assay buffer (25 mM Hepes pH 7.4, 150 mM NaCl, 0.005% Tween 20, BSA 0.01%). Diluted compounds were added to the wells with final concentration of DMSO at 1%. PDL1-6×His protein was added to the wells, mixed well with compound. The plates were incubated for 30 min at room temperature. PD1-Fc-Avi-Biotin protein was added to the wells. […] After a binding time of 30 min at room temperature, Anti-6×His Acceptor beads (final concentration 20 ug/ml) were added to the wells, and the incubation continued for 1 h. Streptavidin Donor beads (final concentration 20 ug/mL) were added at reduced light. The plates were sealed with foil and incubated in the dark for additional 1 h or overnight before reading on an Envision reader. The IC50s were determined by fitting the curves using a four-parameter equation in Graphpad Prism 8.

The mark [3] stands for this setting: Table C-1, read-out: Biological Data Biochem PD-1/PD-L1.
Setting [4] is: Table C, read-out: PD-1/PD-L1 PPI IC50.

T1 sequence (Q9NZQ7 19-290): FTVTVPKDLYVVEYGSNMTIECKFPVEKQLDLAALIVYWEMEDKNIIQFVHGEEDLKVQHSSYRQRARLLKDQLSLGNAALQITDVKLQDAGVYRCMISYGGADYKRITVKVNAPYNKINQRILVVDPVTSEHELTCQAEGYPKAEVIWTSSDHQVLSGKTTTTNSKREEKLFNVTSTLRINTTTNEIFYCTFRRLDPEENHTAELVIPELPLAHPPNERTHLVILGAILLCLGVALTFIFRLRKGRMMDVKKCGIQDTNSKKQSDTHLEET
PD-1/PD-L1 interaction (PDL1-6×His protein, PD1-Fc-Avi-Biotin protein), sequence (Q9NZQ7 19-238 limits assumed): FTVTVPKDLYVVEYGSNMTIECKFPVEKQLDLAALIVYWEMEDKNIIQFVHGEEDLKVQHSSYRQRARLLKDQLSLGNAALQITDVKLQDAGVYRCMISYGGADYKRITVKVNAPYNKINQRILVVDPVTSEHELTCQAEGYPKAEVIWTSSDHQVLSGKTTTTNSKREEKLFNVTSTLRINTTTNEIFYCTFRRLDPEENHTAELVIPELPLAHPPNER

As for `CCOC(=O)C1CN([C@H]2CCc3cc(-c4cccc(-c5cccc(-c6cc7c(c(OC)c6)[C@@H](N6CC(C(=O)OCC)C6)CC7)c5Cl)c4Cl)cc(OC)c32)C1` (single isomer, unassigned) [Compound L-4], the EC50 (as a rule, the concentration giving half of the maximal effect) in assay [1] is 100 to 1000 nM. For the same molecule, the IC50 in assay [2] (setting [3]) is not above 10 nM.
Turning to `CCOC(=O)C1CN([C@@H]2CCc3cc(-c4cccc(-c5cccc(-c6cc7c(c(OC)c6)[C@H](N6CC(C(=O)OCC)C6)CC7)c5Cl)c4Cl)cc(OC)c32)C1` (single isomer, unassigned) [Compound L-5], in assay [1], the “PD-1/PD-L1 NFAT Reporter Assay” value is given as “n.r”. In assay [2] (setting [3]), the IC50 was in the range of 100 to 1000 nM.
In the case of `CCOC(=O)C1CN([C@H]2CCc3cc(-c4cccc(-c5cccc(-c6ccc7c(c6)CC[C@@H]7N6CC(C(=O)OCC)C6)c5Cl)c4Cl)ccc32)C1` (single isomer, unassigned) [Compound L-6], in assay [1], the concentration giving a half-maximal response (EC50) was 1000 to 10000 nM. Further, the IC50 in assay [2] (setting [3]) was not above 10 nM.
As for `CCOC(=O)C1CN([C@@H]2CCc3cc(-c4cccc(-c5cccc(-c6ccc7c(c6)CC[C@H]7N6CC(C(=O)OCC)C6)c5Cl)c4Cl)ccc32)C1` (single isomer, unassigned) [Compound L-7], the EC50 in assay [1] fell in the range of 100 to 1000 nM. In addition, the IC50 in assay [2] (setting [3]) is not above 10 nM.
`COc1nc(-c2cccc(-c3cccc(-c4cc5c(c(OC)n4)[C@@H](N4CC6(CCC(=O)N6)C4)CC5)c3Cl)c2F)cc2c1[C@@H](N1CC3(CCC(=O)N3)C1)CC2` (single isomer, unassigned) [Compound L-9] registered a concentration giving a half-maximal response (EC50) in assay [1] not above 10 nM. For the same molecule, the IC50 in assay [2] (setting [3]) and in assay [2] (setting [4]) was not above 10 nM throughout.
As for `COc1nc(-c2cccc(-c3cccc(-c4cc5c(c(OC)n4)[C@@H](N4CC6(CN(C(C)=O)C6)C4)CC5)c3Cl)c2F)cc2c1[C@@H](N1CC3(CN(C(C)=O)C3)C1)CC2` (single isomer, unassigned) [Compound L-10], the EC50 in assay [1] is more than 10000 nM. Besides, the IC50 in assay [2] (setting [3]) and in assay [2] (setting [4]) was not above 10 nM throughout.
In assay [1], `COc1nc(-c2cccc(-c3cccc(-c4cc5c(c(OC)n4)[C@H](N4CC6(CN(C(C)=O)C6)C4)CC5)c3Cl)c2F)cc2c1[C@H](N1CC3(CN(C(C)=O)C3)C1)CC2` (single isomer, unassigned) [Compound L-11] displayed a 50% effective concentration (EC50) not above 10 nM. The IC50 in assay [2] (setting [3]) and in assay [2] (setting [4]) was not above 10 nM throughout.
On to `CCOC(=O)C1CN([C@H]2CCc3cc(-c4cccc(-c5cccc(-c6ccc7c(c6)CC[C@@H]7N6CC(C(=O)O)C6)c5Cl)c4Cl)ccc32)C1` (single isomer, unassigned) [Compound M-2A], for which the EC50 in assay [1] lay in the range of 100 to 1000 nM. Further, the IC50 in assay [2] (setting [3]) is not above 10 nM.
As for `O=C(O)C1CN([C@H]2CCc3cc(-c4cccc(-c5cccc(-c6ccc7c(c6)CC[C@@H]7N6CC(C(=O)O)C6)c5Cl)c4Cl)ccc32)C1` (single isomer, unassigned) [Compound M-2B], the concentration giving a half-maximal response (EC50) in assay [1] is 100 to 1000 nM. Moreover, in assay [2] (setting [3]), the IC50 was not above 10 nM.
`CCOC(=O)C1CN([C@@H]2CCc3cc(-c4cccc(-c5cccc(-c6ccc7c(c6)CC[C@H]7N6CC(C(=O)O)C6)c5Cl)c4Cl)ccc32)C1` (single isomer, unassigned) [Compound M-3A]: in assay [1], the concentration for a half-maximal effect (EC50) lay within 100 to 1000 nM. Moreover, the IC50 in assay [2] (setting [3]) was not above 10 nM.
Take `O=C(O)C1CN([C@@H]2CCc3cc(-c4cccc(-c5cccc(-c6ccc7c(c6)CC[C@H]7N6CC(C(=O)O)C6)c5Cl)c4Cl)ccc32)C1` (single isomer, unassigned) [Compound M-3B]: the concentration giving a half-maximal response (EC50) in assay [1] was in the range of 100 to 1000 nM. Also, the IC50 in assay [2] (setting [3]) is not above 10 nM.
Turning to `COc1cc(-c2cccc(-c3cccc(-c4cc5c(c(OC)c4)[C@H](N4CC(C(=O)O)C4)CC5)c3Cl)c2Cl)cc2c1[C@H](N1CC(C(=O)O)C1)CC2` (single isomer, unassigned) [Compound M-4B], the “PD-1/PD-L1 NFAT Reporter Assay” value in assay [1] is “n.r”. The IC50 in assay [2] (setting [3]) lay within 10 to 100 nM.
In assay [1], `COc1cc(-c2cccc(-c3cccc(-c4cc5c(c(OC)c4)[C@@H](N4CC(C(=O)O)C4)CC5)c3Cl)c2Cl)cc2c1[C@H](NC[C@@H]1CCC(=O)N1)CC2` (single isomer, unassigned) [Compound N-3B] yielded a 50% effective concentration (EC50) of 10 to 100 nM.
On the same count and under the same terms, to `CCOC(=O)C1CN(C2CCc3cc(-c4cccc(-c5cccc(-c6cc7c(c(OC)n6)CCN(CCOC)C7)c5Cl)c4Cl)cc(OC)c32)C1` (single isomer, unassigned) [Compound O-2A] belongs 100 to 1000 nM; to `COc1nc(-c2cccc(-c3cccc(-c4cc5c(c(OC)n4)[C@@H](NC[C@@H]4CCC(=O)N4)CC5)c3Cl)c2Cl)cc2c1[C@@H](NC[C@@H]1CCC(=O)N1)CC2` [Compound L-3], not above 10 nM.
Take `COc1nc(-c2cccc(-c3cccc(-c4cc5c(c(OC)n4)[C@@H](NC[C@@H]4CCC(=O)N4)CC5)c3Cl)c2F)cc2c1[C@@H](NC[C@@H]1CCC(=O)N1)CC2` [Compound L-8]: the EC50 in assay [1] is not above 10 nM. Further, the IC50 in assay [2] (setting [3]) and in assay [2] (setting [4]) was not above 10 nM throughout.
In assay [1], `COc1cc(-c2cccc(-c3cccc(-c4cc5c(c(OC)c4)C(N4CC(C(=O)O)C4)CC5)c3Cl)c2Cl)cc2c1C(N1CC(C(=O)O)C1)CC2` (centres unmarked) [Compound M-1B] registered a concentration for a half-maximal effect (EC50) of 100 to 1000 nM. Further, the IC50 in assay [2] (setting [3]) was not above 10 nM.
For the molecule `COCCN1CCc2c(cc(-c3cccc(-c4cccc(-c5cc6c(c(OC)n5)CCN(CCOC)C6)c4Cl)c3Cl)nc2OC)C1` [Compound O-1], in assay [1], the EC50 was in the range of 1000 to 10000 nM. In assay [2] (setting [3]), the IC50 was not above 10 nM.
`COCCN1CCc2c(cc(-c3cccc(-c4cccc(-c5cc6c(c(OC)c5)[C@@H](N5CC(C(=O)O)C5)CC6)c4Cl)c3Cl)nc2OC)C1` [Compound O-2B] showed an EC50 in assay [1] of 10 to 100 nM.

Values taken from patent US11760764B2, “Methods and compositions for targeting PD-L1” (Aligos Therapeutics, Inc., priority 2020, dated 2023).
